Tests used:
Assay in all cases: competition of […]-glucose uptake by germinating conidia
Type in all cases: cell-based
MstC (SorA) [1] = biological target: T1, MstC (SorA) (Aspergillus nidulans, UniProt Q5AYG1); details: wild type V004 conidia germinated on glycerol; 16 µM 14C-glucose, 200-fold excess competitor (3.2 mM)
T1 construct: gene ANIA_06669; native full-length protein, 534 aa, in intact germinating conidia (4 h, glycerol)
T1 sequence (Q5AYG1 1-534): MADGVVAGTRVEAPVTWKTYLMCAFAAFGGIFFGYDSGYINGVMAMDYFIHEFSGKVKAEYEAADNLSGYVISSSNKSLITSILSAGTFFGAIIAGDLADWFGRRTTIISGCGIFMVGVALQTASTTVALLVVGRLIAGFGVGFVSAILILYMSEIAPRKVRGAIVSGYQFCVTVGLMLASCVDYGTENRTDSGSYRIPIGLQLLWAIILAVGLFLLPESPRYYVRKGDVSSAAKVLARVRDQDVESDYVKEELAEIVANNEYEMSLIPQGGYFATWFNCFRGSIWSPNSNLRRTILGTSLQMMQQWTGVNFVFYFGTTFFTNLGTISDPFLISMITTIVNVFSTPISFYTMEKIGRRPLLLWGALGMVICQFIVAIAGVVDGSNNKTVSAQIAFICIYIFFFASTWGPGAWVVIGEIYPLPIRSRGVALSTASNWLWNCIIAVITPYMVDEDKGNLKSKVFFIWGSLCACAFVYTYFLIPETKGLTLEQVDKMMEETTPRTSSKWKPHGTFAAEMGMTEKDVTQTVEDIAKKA

MstC (SorA) [2] = biological target: T1, MstC (SorA); details: wild type V004 conidia germinated on glycerol; 16 µM 14C-glucose, 200-fold excess competitor (3.2 mM); remark: listed apart in the source
MstA = biological target: T2, MstA (Aspergillus nidulans, UniProt Q5ASJ3); details: V152 conidia germinated on glycerol; 90 µM 14C-glucose, 200-fold excess competitor (18 mM); minor low-affinity background uptake
T2 construct: gene ANIA_08737; full-length protein, 527 aa, homologous expression from mstC promoter in mstA mstC double-deleted A. nidulans; intact germinating conidia
T2 sequence (Q5ASJ3 entry or part of it): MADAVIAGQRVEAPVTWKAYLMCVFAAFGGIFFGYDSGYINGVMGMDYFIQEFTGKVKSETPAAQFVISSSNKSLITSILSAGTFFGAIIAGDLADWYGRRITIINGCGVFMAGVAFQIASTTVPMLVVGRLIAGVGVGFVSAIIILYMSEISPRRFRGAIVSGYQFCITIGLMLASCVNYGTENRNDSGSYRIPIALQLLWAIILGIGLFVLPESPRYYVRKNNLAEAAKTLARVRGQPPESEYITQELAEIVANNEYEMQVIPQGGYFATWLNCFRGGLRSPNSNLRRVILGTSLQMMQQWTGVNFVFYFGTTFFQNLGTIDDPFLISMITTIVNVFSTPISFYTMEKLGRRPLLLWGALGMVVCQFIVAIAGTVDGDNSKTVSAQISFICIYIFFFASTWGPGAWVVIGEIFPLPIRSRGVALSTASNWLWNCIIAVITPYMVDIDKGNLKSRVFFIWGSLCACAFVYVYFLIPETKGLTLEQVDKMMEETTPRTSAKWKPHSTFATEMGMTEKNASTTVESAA

Compound | relative uptake rate, % of control (MstC (SorA) [1]) | % reduction of uptake (MstC (SorA) [2]) | relative uptake rate, % of control (MstA)
OC[C@H]1OC(O)C[C@@H](O)[C@@H]1O (stereo partly drawn) [2-DOG] | most effective competitor, along with the glucose analogues 2-DOG and 3-O-methyl glucose |  | 
OC[C@H]1OC(O)[C@@H](O)[C@@H](O)[C@@H]1O (stereo partly drawn) [mannose] |  | 80% | mannose is the most effective substrate of those studied in competing against glucose uptake
CO[C@H]1[C@H](O)[C@@H](CO)OC(O)[C@@H]1O (stereo partly drawn) [3-O-methyl glucose] | most effective competitor, along with the glucose analogues 2-DOG and 3-O-methyl glucose |  | 
OC1OC[C@@H](O)[C@H](O)[C@H]1O (stereo partly drawn) [xylose] |  |  | xylose and galactose may also be minor physiological sugar substrates for this transporter
OC[C@H]1OC(O)[C@H](O)[C@@H](O)[C@H]1O (stereo partly drawn) [galactose] |  |  | xylose and galactose may also be minor physiological sugar substrates for this transporter

From article PMC3994029 (PLoS ONE, 2014)
